The results in this text go back to patent publication US10370436B2, “Anti-pseudomonas Psl binding molecules and uses thereof” (priority 2011, dated 2019).

In experiment [1] the test system is Psl on in vivo passaged P. aeruginosa strains. As to the kind of experiment: Flow cytometry of in vivo passaged P. aeruginosa. Format: binding, Pseudomonas aeruginosa. From the text: For IgG expression, the VH and VL chains of selected antibodies were cloned into human IgG1 expression vectors, co-expressed in HEK293 cells, and purified by protein A affinity chromatography as described (Persic, L., et al., Gene 187, 9-18 (1997)). Human IgG1 antibodies made with the variable regions from these selected serotype independent phage were confirmed for P. aeruginosa specificity and prioritized for subsequent analysis by whole cell binding to dominant clinically relevant serotypes by FACS analysis (FIG. 1F), since this method is more stringent than ELISA. For the flow cytometry based binding assays mid-log phase P. aeruginosa strains were concentrated in PBS to an OD650 of 2.0. After incubation of antibody (10 μg/mL) and bacteria (˜1×10^7 cells) for 1 hr at 4° C. with shaking, washed cells were incubated with an ALEXA FLUOR […] goat anti-human IgG antibody (Invitrogen, Carlsbad, Calif.) for 0.5 hr at 4° C. Washed cells were stained with BACLIGHT™ green bacterial stain as recommended (Invitrogen, Carlsbad, Calif.). Samples were run on a LSR II flow cytometer (BD Biosciences) and analyzed using BD FacsDiva (v. 6.1.3) and FlowJo (v. 9.2; TreeStar).
To test if Psl expression in vivo is maintained, mice were injected intraperitoneally with P. aeruginosa isolates followed by harvesting of bacteria by peritoneal lavage four hours post-infection. The presence of Psl was analyzed with a control antibody and Cam-003 by flow cytometry as conditions for antibody binding are more stringent and allow for quantification of cells that are positive or negative for Psl expression. For ex vivo binding, bacterial inocula (0.1 ml) was prepared from an overnight TSA plate and delivered intraperitoneally to BALB/c mice. At 4 hr. following challenge, bacteria were harvested, RBCs lysed, sonicated and resuspended in PBS supplemented with 0.1% Tween-20 and 1% BSA. Samples were stained and analyzed as previously described in Example 1. […] Within the inocula, Psl was not detected for strain 6077 and was minimally detected for strains PAO1 (O5) and 6206 (O11-cytotoxic).
The level of Psl expression/accessibility on the surface of P. aeruginosa strains PAO1 and 6206 in the acute pneumonia model was also assessed. Bacteria prepared from overnight-incubated, confluent plates, as described above, were intranasally administered to BALB/c mice. At 4 and 24 hours post-infection, bacteria were recovered from the lungs by bronchoalveolar lavage. Samples were stained and analyzed as previously described in Example 1.

The subject of experiment [2] is P. aeruginosa PAO1 and isogenic mutants. As to the kind of experiment: Indirect ELISA on plates coated with P. aeruginosa strains. In kind it is binding, Pseudomonas aeruginosa. From the text:
In addition, duplication of VH CDR3 loop sequences in the libraries (a measure of clonal enrichment during selection), was also found to be higher in the patient library, reaching 88-92%, compared to 15-25% in the naïve library at round 3 (FIG. 1D). Individual scFv phage from affinity selections were next screened by ELISA for reactivity to P. aeruginosa heterologous serotype strains (FIG. 1E). ELISA plates (Nunc; MAXISORP™) were coated with P. aeruginosa strains from overnight cultures as described (DiGiandomenico, A., et al., Infect Immun 72, 7012-7021 (2004)). Diluted antibodies were added to blocked plates for 1 hour, washed, and treated with HRP-conjugated anti-human secondary antibodies for 1 hour followed by development and analysis as described (Ulbrandt, N. D., et al., J Virol 80, 7799-7806 (2006)). The dominant species of phage obtained from whole cell selections with both libraries yielded serotype specific reactivity (data not shown).
This example describes identification of the target of anti-P. aeruginosa antibodies derived from phenotypic screening. Target analysis was performed to test whether the serotype independent antibodies targeted protein or carbohydrate antigens. […] Isogenic mutants were constructed in genes responsible for O-antigen, alginate, and LPS core biosynthesis; wbpL (O-antigen-deficient); wbpL/algD (O-antigen and alginate deficient); rmlC (O-antigen-deficient and truncated outer core); and galU (O-antigen-deficient and truncated inner core). P. aeruginosa mutants were constructed based on the allele replacement strategy described by Schweizer (Schweizer, H. P., Mol Microbiol 6, 1195-1204 (1992); Schweizer, H. D., Biotechniques 15, 831-834 (1993)). Vectors were mobilized from E. coli strain 517.1 into P. aeruginosa strain PAO1; recombinants were isolated as described (Hoang, T. T., et al., Gene 212, 77-86 (1998)). Gene deletion was confirmed by PCR. P. aeruginosa mutants were complemented with pUCP30T-based constructs harboring wild type genes. […] The rmlC and galU genes were recently shown to be required for biosynthesis of the Psl exopolysaccharide, a repeating pentasaccharide polymer consisting of D-mannose, L-rhamnose, and D-glucose. Cam-003 binding to an isogenic pslA knockout PAO1ΔpslA, was tested, as pslA is required for Psl biosynthesis (Byrd, M. S., et al., Mol Microbiol 73, 622-638 (2009)). Binding of Cam-003 to PAO1ΔpslA was abolished when tested by ELISA (FIG. 3B) and FACS (FIG. 3C), while the LPS molecule in this mutant was unaffected (FIG. 3D). Binding of Cam-003 was restored in a PAO1ΔwbpL/algD/pslA triple mutant complemented with pslA (FIG. 3E) as was the ability of Cam-003 to mediate opsonic killing to complemented PAO1ΔpslA in contrast to the mutant (FIGS. 3F and 3G). Binding of Cam-003 antibody to a Pcl exopolysaccharide mutant was also unaffected further confirming Psl as our antibody target (FIG. 3E). Binding assays confirmed that the remaining antibodies also bound Psl (FIGS. 3H and 3I).

In the case of “Cam-003: human IgG1 anti-Psl monoclonal antibody, VH SEQ ID NO: 1 and VL SEQ ID NO: 2”, the “staining of bacteria by flow cytometry” value in experiment [1] (6206, bronchoalveolar lavage 4 hours post-infection, FIG. 5D) is “minimal”; in experiment [1] (PAO1, bronchoalveolar lavage 4 hours post-infection, FIG. 5D) it was “Strong Cam-003 staining”; in experiment [1] (PAO1 and 6206, bronchoalveolar lavage 24 hours post-infection, FIG. 5E), “strong Cam-003 staining”; in experiment [1] (three wild type strains harvested by peritoneal lavage 4 hr after intraperitoneal challenge, FIG. 5C), “strong Cam-003 staining”. In experiment [1] (PAO1ΔpslA), the “reactivity by flow cytometry after in vivo passage” value is “unable to react with Cam-003”. In experiment [2] (LPS purified from PAO1), the “reactivity to purified LPS” value was “not observed”. Also, the ELISA binding result in experiment [2] (PAO1ΔpslA, FIG. 3B) was “abolished”; in experiment [2] (PAO1ΔwbpL/algD/pslA triple mutant complemented with pslA, FIG. 3E), “restored”; in experiment [2] (Pcl exopolysaccharide mutant, FIG. 3E), “unaffected”; in experiment [2] (rmlC and galU mutants, FIGS. 3A, 3J), “abolished”; in experiment [2] (wbpL or wbpL/algD double mutant, FIGS. 3A, 3J) it was “unaffected”.
